Data taken from PubChem BioAssay AID1963833 (Molecular Pharmacology Branch, DTP, NCI, 2024).

Test system: 883617-216-R-J1-PDC complex spheroid viability
Assay: Anticancer human tumor 883617-216-R-J1-PDC patient-derived bladder carcinoma cell line growth inhibition [POLQ]
Details: for IC50: curve of first compound; for viability, T/C: stronger effect = lower value
Procedure, shortened: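 Three-cell-type spheroids modelling solid tumor plus stroma served as the readout system; POL inhibitors were tested individually and in combination, concentration ranges set by clinical Cmax where known.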
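Further: spheroids exposed to compounds for seven days before readout.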
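Wherever viability, T/C is given: 100% = DMSO vehicle control viability.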

In the case of CC(=O)O[C@H]1C(=O)[C@@]2(C)[C@H]([C@H](OC(=O)c3ccccc3)[C@]3(O)C[C@H](OC(=O)[C@H](O)[C@@H](NC(=O)c4ccccc4)c4ccccc4)C(C)=C1C3(C)C)[C@]1(OC(C)=O)CO[C@@H]1C[C@@H]2O + Cc1cccc(N(C)C(=O)C2C(O)CCN2c2nc(C)cc(C(F)(F)F)c2C#N)c1, the IC50 (second compound 0.0316 µM) is reported as under 9.49 nM, the IC50 (second compound 0.1 µM) is reported as under 9.49 nM and the IC50 (second compound 0.316 µM) is reported as 10.4 nM. The IC50 (second compound 1 µM) was under 9.49 nM, the IC50 (second compound 3.16 µM) was under 9.49 nM and the IC50 (second compound 10 µM) was 11.1 nM. For the same molecule, the viability, T/C (second compound 0.0316 µM, first compound 0.00949 µM) was 40.2%, the viability, T/C (second compound 0.0316 µM, first compound 0.03 µM) was 22.1% and the viability, T/C (second compound 0.0316 µM, first compound 0.0949 µM) was 22%. The viability, T/C (second compound 0.0316 µM, first compound 0.3 µM) was 19.8%, the viability, T/C (second compound 0.0316 µM, first compound 0.949 µM) was 18.5% and the viability, T/C (second compound 0.0316 µM, first compound 3 µM) was 23.1%. The viability, T/C (second compound 0.1 µM, first compound 0.00949 µM) was 46.9%, the viability, T/C (second compound 0.1 µM, first compound 0.03 µM) was 29.2% and the viability, T/C (second compound 0.1 µM, first compound 0.0949 µM) was 21.6%. It also gave a viability, T/C (second compound 0.1 µM, first compound 0.3 µM) of 27.5%, a viability, T/C (second compound 0.1 µM, first compound 0.949 µM) of 24.6% and a viability, T/C (second compound 0.1 µM, first compound 3 µM) of 26.7%. It also gave a viability, T/C (second compound 0.316 µM, first compound 0.00949 µM) of 52.2%, a viability, T/C (second compound 0.316 µM, first compound 0.03 µM) of 25.1% and a viability, T/C (second compound 0.316 µM, first compound 0.0949 µM) of 24.4%. The viability, T/C (second compound 0.316 µM, first compound 0.3 µM) was 23.9%, the viability, T/C (second compound 0.316 µM, first compound 0.949 µM) was 20.8% and the viability, T/C (second compound 0.316 µM, first compound 3 µM) was 24.8%. It also gave a viability, T/C (second compound 1 µM, first compound 0.00949 µM) of 45.4%, a viability, T/C (second compound 1 µM, first compound 0.03 µM) of 29.2% and a viability, T/C (second compound 1 µM, first compound 0.0949 µM) of 22.4%. For the same molecule, the viability, T/C (second compound 1 µM, first compound 0.3 µM) was 18.9%, the viability, T/C (second compound 1 µM, first compound 0.949 µM) was 26.1% and the viability, T/C (second compound 1 µM, first compound 3 µM) was 28.2%. The viability, T/C (second compound 3.16 µM, first compound 0.00949 µM) was 44.1%, the viability, T/C (second compound 3.16 µM, first compound 0.03 µM) was 24.4% and the viability, T/C (second compound 3.16 µM, first compound 0.0949 µM) was 32.5%. For the same molecule, the viability, T/C (second compound 3.16 µM, first compound 0.3 µM) was 27.6%, the viability, T/C (second compound 3.16 µM, first compound 0.949 µM) was 41.8% and the viability, T/C (second compound 3.16 µM, first compound 3 µM) was 28.9%. For the same molecule, the viability, T/C (second compound 10 µM, first compound 0.00949 µM) was 54.7%, the viability, T/C (second compound 10 µM, first compound 0.03 µM) was 19.3% and the viability, T/C (second compound 10 µM, first compound 0.0949 µM) was 21.2%. For the same molecule, the viability, T/C (second compound 10 µM, first compound 0.3 µM) was 25.3%, the viability, T/C (second compound 10 µM, first compound 0.949 µM) was 21.4% and the viability, T/C (second compound 10 µM, first compound 3 µM) was 15.6%.
